Experimental data reported in patent US20100144626A1, “Treatment of Multi-Drug Resistant Bacterial Infections” (priority 2006, published 2010).
In brackets after ≈: the same amount, converted by molar mass. Entries after “also recorded” stand apart in the source; their conditions may differ. Like-named read-outs stand apart in the source and are kept apart here.

Legend:
Format in all cases: cell-based
[1] = system: Enterococcus faecalis (VRE) E8 VanA; assay: MIC, agar dilution (BSAC guidelines); conditions: E. faecalis (VRE) E8 VanA
Experimental: (§1) In example experiments miconazole nitrate, was dissolved in methanol and econazole nitrate and clotrimazole were dissolved in DMSO and methanol respectively. Other solvents that may be used include caster oil, pyridine, DMSO and 0.9% saline. For IV administration agents may be solubilised in polyethoxylated caster oil, or cyclodextrins such as sulfobutylether7-βcyclodextrin or hydroxypropyl-β-cyclodextrin and lactic acid. Minimum inhibitory concentrations (MICs) of a range of clinical and control bacterial organisms were measured according to BSAC (British Society for Antimicrobial Chemotherapy) guidelines, described briefly as follows;
(§2) Preparation of Agar Plates and Broths
(§3) Stock solutions of each agent were prepared using the formula:
(§4) Where P=μg of active compound per mg (μg/mg) • V=volume required (mL) • C=final concentration of solution (mg/L) • W=weight of agent (mg) to be dissolved in volume V (mL)
(§5) Stock solutions were prepared at concentrations of 1000 mg/L and 100 mg/L. The appropriate amounts of each stock solution were added to separate Petri dishes give the following final concentrations (after the addition of 20 mL molten agar): 128, 64, 32, 16, 8, 4, 2, 1, 0.5, 0.25, 0.12, 0.06, 0.03, 0.015 mg/L.
(§6) Volumes (20 mL) of cooled molten IST agar (oxoid) was added to each Petri dish and mixed by swirling.
(§7) After drying, the plates were stored at 4° C. and protected from light. Plates were used on the day of preparation.
(§8) The test organisms were grown overnight in 5 mL IST broth. Using a dilution in 0.9% saline of 1:500 for Gram-negative organisms and 1:100 for Gram-positive organisms, the appropriate agar plates were inoculated using a multipoint inoculator.
(§9) Plates were incubated at 37° C. in air for 18-20 hours.
(§10) The MIC is the minimum amount of an antibiotic at which there is no visible growth of bacteria. Tiny single colonies or faint hazes were not counted as growth.

[2] = system: Klebsiella pneumoniae ESBL 700603; assay: MIC, agar dilution (BSAC guidelines)
Experimental: as §1, §2, §3, §4, §5, §6, §7, §8, §9, §10

[3] = system: Escherichia coli NCTC 10418; assay: MIC, agar dilution (BSAC guidelines)
Experimental: as §1, §2, §3, §4, §5, §6, §7, §8, §9, §10

[4] = system: Pseudomonas aeruginosa NCTC 10662; assay: MIC, agar dilution (BSAC guidelines)
Experimental: as §1, §2, §3, §4, §5, §6, §7, §8, §9, §10

[5] = system: Acinetobacter Baumannii ATCC 19606; assay: MIC, agar dilution (BSAC guidelines)
Experimental: as §1, §2, §3, §4, §5, §6, §7, §8, §9, §10

[6] = system: Enterococcus faecium (VRE) E15 VanA ATCC 4147; assay: MIC, agar dilution (BSAC guidelines)
Experimental: as §1, §2, §3, §4, §5, §6, §7, §8, §9, §10

[7] = system: Enterococcus faecium (VRE) E19 UAA/522 VanB; assay: MIC, agar dilution (BSAC guidelines); conditions: E. faecium (VRE) E19 UAA/522 VanB
Experimental: as §1, §2, §3, §4, §5, §6, §7, §8, §9, §10

[8] = system: VISA, strain USA/VISA 5827; assay: MIC, agar dilution (BSAC guidelines); conditions: Staphylococcus aureus
Experimental: as §1, §2, §3, §4, §5, §6, §7, §8, §9, §10

[9] = system: Enterococcus faecium (VRE) VanR B145344C LFE; assay: MIC, agar dilution (BSAC guidelines); conditions: E. faecium (VRE) VanR B145344C LFE
Experimental: as §1, §2, §3, §4, §5, §6, §7, §8, §9, §10

[10] = system: VISA, strain USA/VISA 5836; assay: MIC, agar dilution (BSAC guidelines); conditions: Staphylococcus aureus
Experimental: as §1, §2, §3, §4, §5, §6, §7, §8, §9, §10

[11] = system: VISA, strain VISA 3900 UK; assay: MIC, agar dilution (BSAC guidelines); conditions: Staphylococcus aureus
Experimental: as §1, §2, §3, §4, §5, §6, §7, §8, §9, §10

[12] = system: Staphylococcus epidermidis ATCC 1228; assay: MIC, agar dilution (BSAC guidelines)
Experimental: as §1, §2, §3, §4, §5, §6, §7, §8, §9, §10

[13] = system: Enterococcus gallinarum (VRE) E1 NCTC 12359 VanC1; assay: MIC, agar dilution (BSAC guidelines)
Experimental: as §1, §2, §3, §4, §5, §6, §7, §8, §9, §10

[14] = system: Enterococcus faecium (VRE) NCTC 7171; assay: MIC, agar dilution (BSAC guidelines)
Experimental: as §1, §2, §3, §4, §5, §6, §7, §8, §9, §10

[15] = system: strains of Staphylococci and Enterococci with reduced susceptibility to vancomycin; assay: Growth inhibition, summary of MIC testing; conditions: summary in words
Experimental: as §1, §5, §8, §9, §10

[16] = system: Gram-negative organisms; assay: Growth inhibition, summary of MIC testing; conditions: summary in words
Experimental: as §1, §5, §8, §9, §10

[17] = replicate 1, read-out: Minimum inhibitory concentration (MIC)
[18] = replicate 2, read-out: Minimum inhibitory concentration (MIC)
[19] = replicate 3, read-out: Minimum inhibitory concentration (MIC)

Clc1ccccc1C(c1ccccc1)(c1ccccc1)n1ccnc1 [Clotrimazole, 1-[(2-chlorophenyl)diphenylmethyl]-1H-imidazole]
MIC [1, 17]: 6.5 µg/mL (≈ 18.8 µM)
MIC [1, 18]: > 6 µg/mL
MIC [1, 19]: > 6 µg/mL
MIC ([2]; ESBL700603, K. pneumoniae ESBL 700603, replicate 1, read-out: Minimum inhibitory concentration (MIC)): > 10 µg/mL
MIC ([2]; ESBL700603, K. pneumoniae ESBL 700603, replicate 2, read-out: Minimum inhibitory concentration (MIC)): > 6 µg/mL
MIC ([2]; ESBL700603, K. pneumoniae ESBL 700603, replicate 3, read-out: Minimum inhibitory concentration (MIC)): > 6 µg/mL
MIC ([3]; NCTC10418, E. coli NCTC 10418, replicate 1, read-out: Minimum inhibitory concentration (MIC)): > 10 µg/mL
MIC ([3]; NCTC10418, E. coli NCTC 10418, replicate 2, read-out: Minimum inhibitory concentration (MIC)): > 6 µg/mL
MIC ([3]; NCTC10418, E. coli NCTC 10418, replicate 3, read-out: Minimum inhibitory concentration (MIC)): > 6 µg/mL
MIC ([4]; NCTC10662, P. aeruginosa NCTC 10662, replicate 1, read-out: Minimum inhibitory concentration (MIC)): > 10 µg/mL
MIC ([4]; NCTC10662, P. aeruginosa NCTC 10662, replicate 2, read-out: Minimum inhibitory concentration (MIC)): > 6 µg/mL
MIC ([4]; NCTC10662, P. aeruginosa NCTC 10662, replicate 3, read-out: Minimum inhibitory concentration (MIC)): > 6 µg/mL
MIC ([5]; ATCC19606, Acinetobacter Baumannii ATCC 19606, replicate 1, read-out: Minimum inhibitory concentration (MIC)): > 10 µg/mL
MIC ([5]; ATCC19606, Acinetobacter Baumannii ATCC 19606, replicate 2, read-out: Minimum inhibitory concentration (MIC)): > 6 µg/mL
MIC ([5]; ATCC19606, Acinetobacter Baumannii ATCC 19606, replicate 3, read-out: Minimum inhibitory concentration (MIC)): > 6 µg/mL
MIC ([6]; E. faecium (VRE) E15 VanA ATCC 4147, replicate 1, read-out: Minimum inhibitory concentration (MIC)): 2.5 µg/mL (≈ 7.25 µM)
MIC ([6]; E. faecium (VRE) E15 VanA ATCC 4147, replicate 2, read-out: Minimum inhibitory concentration (MIC)): 4 µg/mL (≈ 11.6 µM)
MIC ([6]; E. faecium (VRE) E15 VanA ATCC 4147, replicate 3, read-out: Minimum inhibitory concentration (MIC)): 4.5 µg/mL (≈ 13 µM)
MIC [7, 17]: 1.5 µg/mL (≈ 4.35 µM)
MIC [7, 18]: 3.5 µg/mL (≈ 10.1 µM)
MIC [7, 19]: 3.5 µg/mL (≈ 10.1 µM)
MIC [8, 17]: 1.5 µg/mL (≈ 4.35 µM)
MIC [8, 18]: 3.5 µg/mL (≈ 10.1 µM)
MIC [8, 19]: 3 µg/mL (≈ 8.7 µM)
MIC [9, 17]: 3 µg/mL (≈ 8.7 µM)
MIC [9, 18]: 4.5 µg/mL (≈ 13 µM)
MIC [9, 19]: 5 µg/mL (≈ 14.5 µM)
MIC [10, 17]: 1.5 µg/mL (≈ 4.35 µM)
MIC [10, 18]: 3 µg/mL (≈ 8.7 µM)
MIC [10, 19]: 2.5 µg/mL (≈ 7.25 µM)
MIC [11, 17]: 1.5 µg/mL (≈ 4.35 µM)
MIC [11, 18]: 2.5 µg/mL (≈ 7.25 µM)
MIC [11, 19]: 2.5 µg/mL (≈ 7.25 µM)
MIC ([12]; ATCC1228, S. epidermidis ATCC 1228, replicate 1, read-out: Minimum inhibitory concentration (MIC)): 3 µg/mL (≈ 8.7 µM)
MIC ([12]; ATCC1228, S. epidermidis ATCC 1228, replicate 2, read-out: Minimum inhibitory concentration (MIC)): 3 µg/mL (≈ 8.7 µM)
MIC ([12]; ATCC1228, S. epidermidis ATCC 1228, replicate 3, read-out: Minimum inhibitory concentration (MIC)): 2.5 µg/mL (≈ 7.25 µM)
MIC ([13]; E. gallinarum (VRE) E1 NCTC 12359 VanC1, replicate 1, read-out: Minimum inhibitory concentration (MIC)): 4 µg/mL (≈ 11.6 µM)
MIC ([13]; E. gallinarum (VRE) E1 NCTC 12359 VanC1, replicate 2, read-out: Minimum inhibitory concentration (MIC)): 6 µg/mL (≈ 17.4 µM)
MIC ([13]; E. gallinarum (VRE) E1 NCTC 12359 VanC1, replicate 3, read-out: Minimum inhibitory concentration (MIC)): > 6 µg/mL
MIC ([14]; E. faecium (VRE) NCTC 7171, replicate 1, read-out: Minimum inhibitory concentration (MIC)): 4 µg/mL (≈ 11.6 µM)
MIC ([14]; E. faecium (VRE) NCTC 7171, replicate 2, read-out: Minimum inhibitory concentration (MIC)): 6 µg/mL (≈ 17.4 µM)
MIC ([14]; E. faecium (VRE) NCTC 7171, replicate 3, read-out: Minimum inhibitory concentration (MIC)): > 6 µg/mL
activity against strains of Staphylococci and Enterococci with reduced susceptibility to vancomycin [15]: good activity; also recorded: capable of inhibiting the growth
activity against Gram-negative organisms [16]: no significant activity
